Laboratory results from PubChem BioAssay AID220 (DTP/NCI, 2004).
Values joined by “and” are separate entries in the source; they are usually repeats but may differ in a detail not shown here. Identical values can stand only once. Inconclusive results are not listed. Starred links: 1 amine or outer side, 2 acyl side, 3 side chain; linkers in the order of their positions; H or OH if unused. Positions of bridges follow the written chain, without caps; N, C: chain ends. Non-standard residues stand in square brackets, D forms with d. Residues, ends and D or L forms follow the SMILES beside them. Chains are numbered I, II in the order given. Actinocin(1to9) = Cc1c2oc3c(C)ccc(C(=O)[*:2])c3nc-2c(C(=O)[*:1])c(N)c1=O; NMeV = CN[CH](C(=O)O)C(C)C; Aze = O=C(O)[CH]1CCN1; Sar = CNCC(=O)O

System: CD8F1 mice, subcutaneous mammary adenocarcinoma, T/C%
Assay: NCI In Vivo Anticancer Drug Screen. Data for tumor model Mammary Adenocarcinoma CD8F1 (subcutaneous) in CD8F1
Settings: higher = larger tumour
Outline: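 Compound-treated versus vehicle-treated mice with transplantable tumors; survival or tumor size compared as T/C.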

[1] = endpoint: median tumor weight (est.), dose: 25.0 mg/kg/injection, schedule: Q07DX005 (ip), vehicle: saline with Tween-80
[2] = endpoint: median tumor weight (est.), dose: 50.0 mg/kg/injection, schedule: Q07DX005 (ip), vehicle: saline with Tween-80
[3] = endpoint: median tumor weight change, dose: 250.0 mg/kg/injection, schedule: Q01DX001 (ip), vehicle: saline

## COC1=C2C[C@@H](C)C[C@@H](OC)[C@@H](O)[C@H](C)/C=C(\C)[C@@H](OC(N)=O)[C@H](OC)/C=C\C=C(/C)C(=O)NC(=CC1=O)C2=O
endpoint: median tumor weight change, dose: 1.25 mg/kg/injection, schedule: Q01DX001 (ip), vehicle: saline with Tween-80
  T/C: 93 % of control and 98 % of control
endpoint: median tumor weight change, dose: 2.5 mg/kg/injection, schedule: Q01DX001 (ip), vehicle: saline with Tween-80
  T/C: 117 % of control and 121 % of control
endpoint: median tumor weight change, dose: 5.0 mg/kg/injection, schedule: Q01DX001 (ip), vehicle: saline with Tween-80
  T/C: 46 % of control

## CC[C@H](CC[C@@H](C)C1CC[C@H]2[C@@H]3CC=C4C[C@@H](OP(=O)(N5CC5)N5CC5)CC[C@]4(C)[C@H]3CC[C@]12C)C(C)C (some centres undefined)
[1]
  T/C: 77 % of control
[2]
  T/C: 56 % of control and 75 % of control
endpoint: median tumor weight (est.), dose: 200.0 mg/kg/injection, schedule: Q07DX005 (ip), vehicle: saline with Tween-80
  T/C: 72 % of control and 75 % of control
endpoint: median tumor weight change, dose: 125.0 mg/kg/injection, schedule: Q01DX001 (ip), vehicle: saline with Tween-80
  T/C: 82 % of control
endpoint: median tumor weight change, dose: 1000.0 mg/kg/injection, schedule: Q01DX001 (ip), vehicle: saline with Tween-80
  T/C: 41 % of control and 44 % of control
endpoint: median tumor weight change, dose: 2000.0 mg/kg/injection, schedule: Q01DX001 (ip), vehicle: saline with Tween-80
  T/C: 9 % of control and 14 % of control

## Cc1cnc(/C=N\NC(N)=S)c2cccc(N)c12
endpoint: median tumor weight (est.), dose: 3.12 mg/kg/injection, schedule: Q07DX005 (ip), vehicle: saline with Tween-80
  T/C: 93 % of control
endpoint: median tumor weight (est.), dose: 12.5 mg/kg/injection, schedule: Q07DX005 (ip), vehicle: saline with Tween-80
  T/C: 83 % of control and 94 % of control
[1]
  T/C: 54 % of control and 71 % of control
[2]
  T/C: 46 % of control and 62 % of control
endpoint: median tumor weight (est.), dose: 100.0 mg/kg/injection, schedule: Q07DX005 (ip), vehicle: saline with Tween-80
  T/C: 55 % of control and 66 % of control

## CCCCCCCCNc1cc2c3c(c1)CCCN3CCC2
endpoint: median tumor weight (est.), dose: 0.75 mg/kg/injection, schedule: Q07DX005 (ip), vehicle: Klucel (hydroxypropylcellulose) (HPC)
  T/C: 88 % of control
endpoint: median tumor weight (est.), dose: 1.5 mg/kg/injection, schedule: Q07DX005 (ip), vehicle: Klucel (hydroxypropylcellulose) (HPC)
  T/C: 87 % of control
endpoint: median tumor weight (est.), dose: 3.0 mg/kg/injection, schedule: Q07DX005 (ip), vehicle: Klucel (hydroxypropylcellulose) (HPC)
  T/C: 81 % of control
endpoint: median tumor weight (est.), dose: 6.0 mg/kg/injection, schedule: Q07DX005 (ip), vehicle: Klucel (hydroxypropylcellulose) (HPC)
  T/C: 103 % of control

## CCOc1cc2c(cc1C(C)c1ccc(OC)cc1)OCO2 (centres undefined)
endpoint: median tumor weight change, dose: 62.5 mg/kg/injection, schedule: Q01DX001 (ip), vehicle: distilled water + alcohol
  T/C: 102 % of control
endpoint: median tumor weight change, dose: 125.0 mg/kg/injection, schedule: Q01DX001 (ip), vehicle: distilled water + alcohol
  T/C: 62 % of control
endpoint: median tumor weight change, dose: 250.0 mg/kg/injection, schedule: Q01DX001 (ip), vehicle: distilled water + alcohol
  T/C: 67 % of control
endpoint: median tumor weight change, dose: 500.0 mg/kg/injection, schedule: Q01DX001 (ip), vehicle: distilled water + alcohol
  T/C: 91 % of control

## CCOC(=O)C1C2OC(=O)C(C(=O)C2CN(CCCl)CCCl)C1C1CC=C(CC2=CCC(C3C4C(=O)OC(C(CN(CCCl)CCCl)C4=O)C3C(=O)OCC)CC2)CC1 (centres undefined)
endpoint: median tumor weight (est.), dose: 12.5 mg/kg/injection, schedule: Q07DX005 (ip), vehicle: Klucel (hydroxypropylcellulose) (HPC)
  T/C: 49 % of control
endpoint: median tumor weight (est.), dose: 25.0 mg/kg/injection, schedule: Q07DX005 (ip), vehicle: Klucel (hydroxypropylcellulose) (HPC)
  T/C: 70 % of control
endpoint: median tumor weight (est.), dose: 50.0 mg/kg/injection, schedule: Q07DX005 (ip), vehicle: Klucel (hydroxypropylcellulose) (HPC)
  T/C: 31 % of control
endpoint: median tumor weight (est.), dose: 100.0 mg/kg/injection, schedule: Q07DX005 (ip), vehicle: Klucel (hydroxypropylcellulose) (HPC)
  T/C: 1 % of control

## NC(N)=NOCC[C@@H](N)C(=O)O
[3]
  T/C: 83 % of control
endpoint: median tumor weight change, dose: 500.0 mg/kg/injection, schedule: Q01DX001 (ip), vehicle: saline
  T/C: 72 % of control
endpoint: median tumor weight change, dose: 1000.0 mg/kg/injection, schedule: Q01DX001 (ip), vehicle: saline
  T/C: 75 % of control

## c1csc(C[N+]23CN4CN(CN(C4)C2)C3)c1
[3]
  T/C: 80 % of control

## Cc1c2oc3c(C)ccc(C(=O)NC4C(=O)NC(C(C)C)C(=O)N5CCCC5C(=O)N(C)CC(=O)N(C)C(C(C)C)C(=O)OC4C)c3nc-2c(C(=O)NC2C(=O)NC(C(C)C)C(=O)N3CCC3C(=O)N(C)CC(=O)N(C)C(C(C)C)C(=O)OC2C)c(N)c1=O (centres undefined) (I: TV[Aze][Sar][NMeV] / II: TVP[Sar][NMeV]; ester I:1-I:C, II:1-II:C; linker I:N-II:N via Actinocin(1to9); configuration not given here)
endpoint: median tumor weight (est.), dose: 300.0 micrograms/kg/injection, schedule: Q07DX005 (ip), vehicle: saline + alcohol
  T/C: 34 % of control and 44 % of control
endpoint: median tumor weight (est.), dose: 600.0 micrograms/kg/injection, schedule: Q07DX005 (ip), vehicle: saline + alcohol
  T/C: 2 % of control

## CCC(=O)O[C@H]1CC[C@H]2[C@@H]3CCC4=CC(=O)CC[C@]4(C)[C@H]3CC[C@]12C
endpoint: median tumor weight (est.), dose: 160.0 mg/kg/injection, schedule: Q07DX005 (ip), vehicle: Klucel (hydroxypropylcellulose) (HPC)
  T/C: 99 % of control
endpoint: median tumor weight (est.), dose: 640.0 mg/kg/injection, schedule: Q07DX005 (ip), vehicle: Klucel (hydroxypropylcellulose) (HPC)
  T/C: 48 % of control
